According to patent US20230000813A1, “COMPOUND FOR THE TREATMENT OF BOVINE OR SWINE RESPIRATORY DISEASE” (Intervet Inc., priority 2016, published 2023):
“And” between values parts separate entries of the source, which are not always exact repeats. Identical values can stand only once.

Tests used:
[1] = system: M. haemolytica M7/2, serotype A:1, ID 6357; test: Mannheimia haemolytica cattle lung infection model, efficacy (Example 8); format: in vivo, Holstein black pied cattle calves; parameters: key to General behavior, score: 0 = normal; 1 = slightly depressive; 2 = moderately depressive; 3 = highly depressive; 4 = recumbency; key to Re-isolation of bacteria, Left Bronchial swab / Re-isolation of bacteria, Right Bronchial swab: − no bacterial growth; + low; ++ medium; +++ high amount of bacterial growth; details: for Food consumption, cumulated for all animals in the group: 3 calves; for Lung score (including grade and percent Lung consolidation): grade of consolidation 0 to 3
Description: 15 male Holstein black pied cattle calves of ca. 4 months age were randomly assigned to the study groups ensuring an equal distribution of body weight. The animal weight was approximately 98-133.5 kg on D-1.
Calves were infected on Day 0 via intratracheal instillation of approximately 300 mL of a M. haemolytica PBS suspension containing approximately 3×10^9 CFU M. haemolytica in late log phase.
Three animals each were treated one hour after infection by subcutaneous (SC) administration of Compound 329 in an aqueous 30% (w/v) Captisol® solution for injection at a dose of 10 mg/kg BW.
The respective dose volume was injected on the sides of the thoracic wall. Injection volumes exceeding 10 mL were divided into one portion of 10 mL administered to the left side and the remaining rest administered at different injection sites on the other side. Animals in one control group were treated with a commercially available Enrofloxacin solution (Baytril ® 10%, Bayer Animal Health) at the recommended dose of 10 mg/kg BW. The second control group was treated with the galenic diluent (30% (w/v) Captisol®, dissolved in water) as placebo.
Food consumption was measured. Single individual blood samples were collected from the 12 animals at the following time points: D-1 (predose), 30 minutes, 2, 4, 6, 24 h and at D2 (ca. 45 h) after administration. After the day 2 blood sampling, the infected cattle were slaughtered. The lungs were weighted. Lung states and lung scores were observed morphologically.
At necropsy from animals treated with test items or the positive control, samples of epithelial lining fluid (ELF), lung tissue, and additionally tissue of liver and kidney were collected. From each lung two bacteriological swaps were taken from the left and right bronchus.
From each lung two tissue samples were collected by clipping from at least two locations, one from morphologically unchanged tissue, one from the edge of pathomorphologically changed areas.

M. haemolytica M7/2 = test: Mannheimia haemolytica cattle lung infection model, efficacy (Example 9); format: in vivo, cattle calves; details: 3 calves, SC 10 mg/kg BW
Description: Unless otherwise described the study was conducted as described in Example 8.
(§1) Calves were infected via intratracheal instillation of appr. 300 mL of M. haemolytica PBS suspension containing approximately 4×10^9 CFU M. haemolytica in late log phase on Day 0.
The following clinical findings were recorded: The general behavior scores of the animals before (DO am) and after infection with M. haemolytica in the different treated and control groups are indicated in FIG. 7-1: 0 =normal; 1=slightly depressive, 2=moderately depressive, 3=highly depressive, […] recumbency.
The following pathomorphological findings after section on Day 2 were recorded: After measuring the body weight and the lung weight the Lung body mass ratio was calculated as shown in FIG. 7-2. A healthy animal has a lung body mass ration around 1.7 or lower. The area percentage of lung consolidations compared to the total lung tissue and the lung score determined that is a combined score of such percentage of lung consoldiations and the grade. For the “grade” the degree of lung consolidation score was graded from 0 to 3 for each of eight lung lobes: 0 no visible changes, 1 low graded colour changes or induration, 2 medium graded induration, 3 high graded induration, hepatisation, necrosis.
The geometrical means (CFU/g tissue) of bacteriological re-isolations of Mannheimia haemolytica from lung tissue are illustrated in FIG. 7-4.

M. haemolytica = test: Mannheimia haemolytica cattle lung infection model, efficacy (Example 10); format: in vivo, cattle calves; details: 3 calves, 10 mg/kg
Description: Unless otherwise described the study was conducted as described in Clinical Example 8
as §1
One hour later three animals each were treated with 10 mg/kg of Compound 231(referred to as C. 231) (80 mg/mL in 10% Poloxamer 188), or 10 mg/kg or 5 mg/kg Compound 329 (referred to as C. 329) (150 mg/mL in 35% Cavitron).
The following clinical findings were recorded: The general behavior scores of the animals before (DO am) and after infection with M. haemolytica in the different treated and control groups are indicated in FIG. 8-1: 0=normal; 1=slightly depressive, 2=moderately depressive, 3=highly depressive, 4=recumbency.
The following pathomorphological findings after section on Day 2 were recorded: After measuring the body weight and the lung weight the Lung body mass ratio was calculated as shown in FIG. 8-2. A healthy animal has a lung body mass ration around 1.7 or lower. The area percentage of lung consolidations compared to the total lung tissue and the lung score determined that is a combined score of such percentage of lung consoldiations and the grade. For the “grade” the degree of lung consolidation score was graded from 0 to 3 for each of eight lung lobes: 0 no visible changes, 1 low graded colour changes or induration, 2 medium graded induration, 3 high graded induration, hepatisation, necrosis.
The geometrical means (CFU/g tissue) of bacteriological re-isolations of Mannheimia haemolytica from lung tissue are illustrated in FIG. 8-4.

[2] = section on day 2, infected calves, SC 10 mg/kg, individual animals and mean, 10 mg/kg
[3] = section on day 2, infected calves, SC 10 mg/kg, individual animals and mean, 10 mg/kg, mean
[4] = section on day 2, infected calves, SC single 10 mg/kg, individual animals
[5] = D 0 am, after infection and treatment

With CCN1CCN(c2cc3c(cc2F)c(=O)c(C(=O)O)cn3C2CC2)CC1 [Enrofloxacin, reference compound] the “General behavior, score” value ([1]; D 0 am (before infection), calves, SC 10 mg/kg, individual animals and mean, 10 mg/kg) was 0, the “General behavior, score” value ([1]; D 0 am (before infection), calves, SC 10 mg/kg, individual animals and mean, 10 mg/kg, mean) was 0.0 score and the “Food consumption, cumulated for all animals in the group” value (“Food consumption, cumulated” below) ([1]; D 0 am, after infection and treatment, SC 10 mg/kg) was 660 g. The “Food consumption, cumulated” value ([1]; D 0 pm, SC 10 mg/kg) was 4800 g, the “General behavior, score” value ([1]; D 0 pm, calves infected with M. haemolytica, SC 10 mg/kg 1 h after infection, individual animals and mean, 10 mg/kg) was 0 and the “General behavior, score” value ([1]; D 0 pm, calves infected with M. haemolytica, SC 10 mg/kg 1 h after infection, individual animals and mean, 10 mg/kg, mean) was 0.0 score. The “General behavior, score” value ([1]; D 1 am, calves infected with M. haemolytica, SC 10 mg/kg 1 h after infection, individual animals and mean, 10 mg/kg) was 0, the “General behavior, score” value ([1]; D 1 am, calves infected with M. haemolytica, SC 10 mg/kg 1 h after infection, individual animals and mean, 10 mg/kg, mean) was 0.0 score and the “General behavior, score” value ([1]; D 1 pm, calves infected with M. haemolytica, SC 10 mg/kg 1 h after infection, individual animals and mean, 10 mg/kg) was 0. For the same compound, the “General behavior, score” value ([1]; D 1 pm, calves infected with M. haemolytica, SC 10 mg/kg 1 h after infection, individual animals and mean, 10 mg/kg, mean) was 0.0 score, the “General behavior, score” value ([1]; D 2 am, calves infected with M. haemolytica, SC 10 mg/kg 1 h after infection, individual animals and mean, 10 mg/kg) was 0 and the “General behavior, score” value ([1]; D 2 am, calves infected with M. haemolytica, SC 10 mg/kg 1 h after infection, individual animals and mean, 10 mg/kg, mean) was 0.0 score. For the same compound, the “Food consumption, cumulated” value ([1]; D +1 am, SC 10 mg/kg) was 4800 g, the “Food consumption, cumulated” value ([1]; D +1 pm, SC 10 mg/kg) was 4800 g and the “Food consumption, cumulated” value ([1]; D −1 (before infection), SC 10 mg/kg) was 4800 g. For the same compound, the mean bacterial re-isolation ([1]; infected calves, SC 10 mg/kg, in words) was “Very low”, the “Lung score (including grade and percent Lung consolidation)” value [1, 2] was 21.2 and 16.9 and 20.4 and the “Lung score (including grade and percent Lung consolidation)” value [1, 3] was 19.5. The Lung consolidations [1, 2] was 13.0% and 10.8% and 15.3%, the Lung weight [1, 2] was 1334 g and 1765 g and 1429 g and the Lung/body weight ratio [1, 2] was ~1.3% and 1.31% and 1.34% and 1.21% and 1.29%. The Lung consolidations [1, 3] was 13.0%, the Lung weight [1, 3] was 1509 g and the “Re-isolation of bacteria, Left Bronchial swab” value [1, 4] was “−”. The “Re-isolation of bacteria, Right Bronchial swab” value [1, 4] was “−”, the “Food consumption, cumulated” value (M. haemolytica M7/2; [5]) was 4027 g and the “Food consumption, cumulated” value (M. haemolytica M7/2; D 0 pm) was 4800 g. The “Food consumption, cumulated” value (M. haemolytica M7/2; D +1 am) was 4737 g, the “Food consumption, cumulated” value (M. haemolytica M7/2; D +1 pm) was 4800 g and the “Food consumption, cumulated” value (M. haemolytica M7/2; D −1 (before infection)) was 4800 g. For the same compound, the “Food consumption, cumulated” value (M. haemolytica; [5]) was 1667 g, the “Food consumption, cumulated” value (M. haemolytica; D 0 pm) was 4800 g and the “Food consumption, cumulated” value (M. haemolytica; D +1 am) was 4800 g. The “Food consumption, cumulated” value (M. haemolytica; D +1 pm) was 4800 g and the “Food consumption, cumulated” value (M. haemolytica; D −1 (before infection)) was 4800 g.
